US11969428B2, “Methods and pharmaceutical compositions for treating lymphoid malignancy” (priority 2011, dated 2024)

Tests used:
Experiment in all cases: Ambit KinomeScan screening
Format in all cases: binding
Settings in all cases: CAL-130 10 μM
CAMKK1 = target: T1, CAMKK1 (Homo sapiens, UniProt Q8N5S9)
T1 construct: purchased Ambit (KinomeScan screening)
In short: (§1)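 CAL-130 was tested at 10 μM for its ability to block tagged kinases from binding an immobilized bait ligand across a 353-kinase panel. Values are expressed as percent of control binding, with lower numbers meaning stronger interaction and values above 35% classed as no hit.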

TRKB = target: T2, TRKB (Homo sapiens, UniProt Q16620)
T2 construct: tag, kind not specified; purchased Ambit (KinomeScan screening service)
T2 sequence (Q16620 32-822): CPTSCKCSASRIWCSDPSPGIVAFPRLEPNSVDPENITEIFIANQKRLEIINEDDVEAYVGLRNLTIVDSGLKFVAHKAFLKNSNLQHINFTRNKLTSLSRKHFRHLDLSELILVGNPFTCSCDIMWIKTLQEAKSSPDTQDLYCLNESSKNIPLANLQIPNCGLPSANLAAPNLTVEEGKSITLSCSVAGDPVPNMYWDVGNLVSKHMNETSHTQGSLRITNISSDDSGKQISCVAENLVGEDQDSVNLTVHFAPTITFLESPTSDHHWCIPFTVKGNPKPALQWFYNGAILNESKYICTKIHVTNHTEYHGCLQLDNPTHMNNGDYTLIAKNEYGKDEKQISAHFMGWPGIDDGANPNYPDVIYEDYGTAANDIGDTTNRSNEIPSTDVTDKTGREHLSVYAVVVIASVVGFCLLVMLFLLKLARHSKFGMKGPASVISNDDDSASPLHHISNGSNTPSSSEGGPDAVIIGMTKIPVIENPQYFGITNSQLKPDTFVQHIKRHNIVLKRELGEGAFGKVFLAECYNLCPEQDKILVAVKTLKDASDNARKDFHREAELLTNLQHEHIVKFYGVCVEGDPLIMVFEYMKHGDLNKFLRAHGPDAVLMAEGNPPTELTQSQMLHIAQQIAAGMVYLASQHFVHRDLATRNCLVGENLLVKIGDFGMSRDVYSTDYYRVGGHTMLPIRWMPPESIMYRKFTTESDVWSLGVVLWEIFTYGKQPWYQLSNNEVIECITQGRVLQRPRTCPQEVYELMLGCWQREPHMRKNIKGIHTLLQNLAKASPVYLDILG
In short: as §1

FLT3(D835Y) = target: T3, FLT3(D835Y) (Homo sapiens, UniProt P36888, D835Y)
T3 construct: unspecified tag; purchased Ambit (KinomeScan screening service)
In short: as §1

OSR1 = target: T4, OSR1 (Homo sapiens, UniProt O95747)
T4 construct: purchased Ambit (KinomeScan screening service)
In short: as §1

TTK = target: T5, TTK (Homo sapiens, UniProt P33981)
T5 construct: tag, kind not specified; purchased Ambit (KinomeScan screening service)
In short: as §1

HPK1 = target: T6, HPK1 (Homo sapiens, UniProt Q92918)
T6 construct: Ambit (KinomeScan screening)
In short: as §1

ABL1(M351T) = target: T7, ABL1(M351T) (Homo sapiens, UniProt P00519, M351T)
T7 construct: unspecified tag ("tagged kinases"); purchased Ambit (KinomeScan screening)
In short: as §1

GCN2(S808G) = target: T8, GCN2(S808G) (Homo sapiens, UniProt Q9P2K8, S808G)
T8 construct: unspecified tag ('tagged kinases'); purchased Ambit (KinomeScan screening service)
In short: as §1

TYK2(JH1domain) = target: T9, TYK2(JH1domain) (Homo sapiens, UniProt P29597)
T9 construct: TYK2(JH1domain); tag, kind not specified; purchased Ambit (KinomeScan screening service)
T9 sequence (P29597 897-1176 limits assumed): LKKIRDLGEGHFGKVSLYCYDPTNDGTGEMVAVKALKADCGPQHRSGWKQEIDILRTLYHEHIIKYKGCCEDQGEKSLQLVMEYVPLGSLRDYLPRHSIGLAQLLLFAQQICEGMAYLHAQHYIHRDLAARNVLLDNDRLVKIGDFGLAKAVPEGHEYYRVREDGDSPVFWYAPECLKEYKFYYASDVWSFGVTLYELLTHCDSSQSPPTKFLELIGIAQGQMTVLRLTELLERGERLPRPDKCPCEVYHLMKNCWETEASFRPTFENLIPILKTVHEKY
In short: as §1

EGFR(G719C) = target: T10, EGFR(G719C) (Homo sapiens, UniProt P00533, G719C)
T10 construct: unspecified tag; purchased Ambit (KinomeScan screening service)
In short: as §1

HUNK = target: T11, HUNK (Homo sapiens, UniProt P57058)
T11 construct: Ambit (KinomeScan screening)
In short: as §1

ACVR2A = target: T12, ACVR2A (Homo sapiens, UniProt P27037)
T12 construct: purchased Ambit (KinomeScan screening)
In short: as §1

AURKC = target: T13, AURKC (Homo sapiens, UniProt Q9UQB9)
T13 construct: purchased Ambit (KinomeScan screening service)
In short: as §1

LATS2 = target: T14, LATS2 (Homo sapiens, UniProt Q9NRM7)
T14 construct: unspecified tag ('tagged kinases'); purchased Ambit (KinomeScan screening service)
In short: as §1

CAMK1G = target: T15, CAMK1G (Homo sapiens, UniProt Q96NX5)
T15 construct: unspecified tag ("tagged kinases"); purchased Ambit (KinomeScan screening)
T15 sequence (Q96NX5 whole entry): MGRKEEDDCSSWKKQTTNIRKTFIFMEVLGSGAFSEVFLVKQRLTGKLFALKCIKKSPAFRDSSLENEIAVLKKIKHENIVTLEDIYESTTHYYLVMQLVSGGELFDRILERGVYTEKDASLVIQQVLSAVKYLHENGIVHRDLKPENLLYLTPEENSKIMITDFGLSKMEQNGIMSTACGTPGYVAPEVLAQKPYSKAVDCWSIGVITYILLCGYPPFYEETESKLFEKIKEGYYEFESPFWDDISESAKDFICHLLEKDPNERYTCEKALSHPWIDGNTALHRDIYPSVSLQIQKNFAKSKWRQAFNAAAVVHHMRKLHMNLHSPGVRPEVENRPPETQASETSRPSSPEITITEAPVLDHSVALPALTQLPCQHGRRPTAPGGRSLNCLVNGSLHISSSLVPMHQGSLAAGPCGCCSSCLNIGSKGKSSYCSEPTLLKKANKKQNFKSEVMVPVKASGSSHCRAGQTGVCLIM
In short: as §1

KIT(V559D) = target: T16, KIT(V559D) (Homo sapiens, UniProt P10721, V559D)
T16 construct: purchased Ambit (KinomeScan screening)
In short: as §1

FES = target: T17, FES (Homo sapiens, UniProt P07332)
T17 construct: unspecified tag ("tagged kinases"); purchased Ambit (KinomeScan screening service)
In short: as §1

CDK7 = target: T18, CDK7 (Homo sapiens, UniProt P50613)
T18 construct: purchased Ambit (KinomeScan screening)
In short: as §1

CDK8 = target: T19, CDK8 (Homo sapiens, UniProt P49336)
T19 construct: purchased Ambit (KinomeScan screening service)
In short: as §1

CSNK1D = target: T20, CSNK1D (Homo sapiens, UniProt P48730)
T20 construct: purchased Ambit (KinomeScan screening service)
In short: as §1

EPHB3 = target: T21, EPHB3 (Homo sapiens, UniProt P54753)
T21 construct: purchased Ambit (KinomeScan screening service)
In short: as §1

AKT1 = target: T22, AKT1 (Homo sapiens, UniProt P31749)
T22 construct: purchased Ambit (KinomeScan screening)
In short: as §1

SRPK1 = target: T23, SRPK1 (Homo sapiens, UniProt Q96SB4)
T23 construct: tag, kind not specified; purchased Ambit (KinomeScan screening service)
In short: as §1

LIMK1 = target: T24, LIMK1 (Homo sapiens, UniProt P53667)
T24 construct: unspecified tag ('tagged kinases'); purchased Ambit (KinomeScan screening service)
In short: as §1

PRKCE = target: T25, PRKCE (Homo sapiens, UniProt Q02156)
T25 construct: purchased Ambit (KinomeScan screening service)
In short: as §1

TAO1 = target: T26, TAO1 (Homo sapiens, UniProt Q9UL54)
T26 construct: tag (kind not specified); purchased Ambit (KinomeScan screening service)
T26 sequence (Q9UL54 whole entry): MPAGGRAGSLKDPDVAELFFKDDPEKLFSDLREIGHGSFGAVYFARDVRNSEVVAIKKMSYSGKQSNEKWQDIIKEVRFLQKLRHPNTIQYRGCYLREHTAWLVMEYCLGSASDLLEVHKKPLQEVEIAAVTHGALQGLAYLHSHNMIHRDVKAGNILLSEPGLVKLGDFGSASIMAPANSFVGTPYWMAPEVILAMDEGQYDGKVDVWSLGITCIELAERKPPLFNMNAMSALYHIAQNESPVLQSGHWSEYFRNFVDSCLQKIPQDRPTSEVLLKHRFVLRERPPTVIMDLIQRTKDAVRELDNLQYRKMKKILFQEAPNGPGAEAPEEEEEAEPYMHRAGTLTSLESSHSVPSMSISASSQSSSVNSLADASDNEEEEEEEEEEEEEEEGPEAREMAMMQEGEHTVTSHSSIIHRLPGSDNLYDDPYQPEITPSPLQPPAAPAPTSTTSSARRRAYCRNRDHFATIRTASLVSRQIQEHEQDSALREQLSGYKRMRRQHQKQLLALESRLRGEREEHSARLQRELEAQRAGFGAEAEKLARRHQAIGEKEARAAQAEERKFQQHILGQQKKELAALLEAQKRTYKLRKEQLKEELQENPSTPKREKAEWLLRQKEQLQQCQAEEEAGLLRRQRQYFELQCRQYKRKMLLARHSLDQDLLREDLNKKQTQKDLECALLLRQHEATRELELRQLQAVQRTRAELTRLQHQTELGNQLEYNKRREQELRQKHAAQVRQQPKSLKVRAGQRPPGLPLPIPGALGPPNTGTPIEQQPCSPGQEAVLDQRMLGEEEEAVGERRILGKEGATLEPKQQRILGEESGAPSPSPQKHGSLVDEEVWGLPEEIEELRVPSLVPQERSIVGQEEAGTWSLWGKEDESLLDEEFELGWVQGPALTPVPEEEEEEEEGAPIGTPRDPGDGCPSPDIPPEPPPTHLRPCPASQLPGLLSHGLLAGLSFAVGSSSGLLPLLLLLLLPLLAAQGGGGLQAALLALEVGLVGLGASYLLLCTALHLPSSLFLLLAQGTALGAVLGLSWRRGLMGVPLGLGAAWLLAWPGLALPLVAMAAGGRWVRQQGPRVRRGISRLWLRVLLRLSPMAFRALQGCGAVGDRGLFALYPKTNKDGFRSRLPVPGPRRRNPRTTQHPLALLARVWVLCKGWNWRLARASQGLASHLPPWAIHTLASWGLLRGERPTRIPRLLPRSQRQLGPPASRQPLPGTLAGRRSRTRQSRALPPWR
In short: as §1

AAK1 = target: T27, AAK1 (Homo sapiens, UniProt Q2M2I8)
T27 construct: unspecified tag ("tagged kinases"); purchased Ambit (KinomeScan screening)
In short: as §1

NEK2 = target: T28, NEK2 (Homo sapiens, UniProt P51955)
T28 construct: unspecified tag; purchased Ambit (KinomeScan screening panel)
T28 sequence (P51955 whole entry): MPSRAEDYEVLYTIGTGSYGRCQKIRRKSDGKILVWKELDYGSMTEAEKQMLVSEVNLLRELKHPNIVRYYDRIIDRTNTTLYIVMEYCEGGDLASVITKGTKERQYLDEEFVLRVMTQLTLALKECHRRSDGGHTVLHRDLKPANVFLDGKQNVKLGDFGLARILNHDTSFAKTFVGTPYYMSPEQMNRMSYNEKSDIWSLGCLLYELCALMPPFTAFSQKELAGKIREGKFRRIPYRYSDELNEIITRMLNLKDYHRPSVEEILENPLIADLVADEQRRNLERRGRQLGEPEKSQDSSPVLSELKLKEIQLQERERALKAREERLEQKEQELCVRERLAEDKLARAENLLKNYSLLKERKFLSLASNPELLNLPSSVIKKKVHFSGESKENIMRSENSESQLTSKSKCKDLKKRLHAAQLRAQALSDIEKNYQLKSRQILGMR
In short: as §1

GSK3B = target: T29, GSK3B (Homo sapiens, UniProt P49841)
T29 construct: unspecified tag ('tagged kinases'); purchased Ambit (KinomeScan screening service)
In short: as §1

TXK = target: T30, TXK (Homo sapiens, UniProt P42681)
T30 construct: tag, kind not specified; purchased Ambit (KinomeScan screening service)
In short: as §1

FGR = target: T31, FGR (Homo sapiens, UniProt P09769)
T31 construct: unspecified tag; purchased Ambit (KinomeScan screening service)
In short: as §1

VEGFR2 = target: T32, VEGFR2 (Homo sapiens, UniProt P35968)
T32 construct: tag, kind not specified; purchased Ambit (KinomeScan screening service)
T32 sequence (P35968 20-1356): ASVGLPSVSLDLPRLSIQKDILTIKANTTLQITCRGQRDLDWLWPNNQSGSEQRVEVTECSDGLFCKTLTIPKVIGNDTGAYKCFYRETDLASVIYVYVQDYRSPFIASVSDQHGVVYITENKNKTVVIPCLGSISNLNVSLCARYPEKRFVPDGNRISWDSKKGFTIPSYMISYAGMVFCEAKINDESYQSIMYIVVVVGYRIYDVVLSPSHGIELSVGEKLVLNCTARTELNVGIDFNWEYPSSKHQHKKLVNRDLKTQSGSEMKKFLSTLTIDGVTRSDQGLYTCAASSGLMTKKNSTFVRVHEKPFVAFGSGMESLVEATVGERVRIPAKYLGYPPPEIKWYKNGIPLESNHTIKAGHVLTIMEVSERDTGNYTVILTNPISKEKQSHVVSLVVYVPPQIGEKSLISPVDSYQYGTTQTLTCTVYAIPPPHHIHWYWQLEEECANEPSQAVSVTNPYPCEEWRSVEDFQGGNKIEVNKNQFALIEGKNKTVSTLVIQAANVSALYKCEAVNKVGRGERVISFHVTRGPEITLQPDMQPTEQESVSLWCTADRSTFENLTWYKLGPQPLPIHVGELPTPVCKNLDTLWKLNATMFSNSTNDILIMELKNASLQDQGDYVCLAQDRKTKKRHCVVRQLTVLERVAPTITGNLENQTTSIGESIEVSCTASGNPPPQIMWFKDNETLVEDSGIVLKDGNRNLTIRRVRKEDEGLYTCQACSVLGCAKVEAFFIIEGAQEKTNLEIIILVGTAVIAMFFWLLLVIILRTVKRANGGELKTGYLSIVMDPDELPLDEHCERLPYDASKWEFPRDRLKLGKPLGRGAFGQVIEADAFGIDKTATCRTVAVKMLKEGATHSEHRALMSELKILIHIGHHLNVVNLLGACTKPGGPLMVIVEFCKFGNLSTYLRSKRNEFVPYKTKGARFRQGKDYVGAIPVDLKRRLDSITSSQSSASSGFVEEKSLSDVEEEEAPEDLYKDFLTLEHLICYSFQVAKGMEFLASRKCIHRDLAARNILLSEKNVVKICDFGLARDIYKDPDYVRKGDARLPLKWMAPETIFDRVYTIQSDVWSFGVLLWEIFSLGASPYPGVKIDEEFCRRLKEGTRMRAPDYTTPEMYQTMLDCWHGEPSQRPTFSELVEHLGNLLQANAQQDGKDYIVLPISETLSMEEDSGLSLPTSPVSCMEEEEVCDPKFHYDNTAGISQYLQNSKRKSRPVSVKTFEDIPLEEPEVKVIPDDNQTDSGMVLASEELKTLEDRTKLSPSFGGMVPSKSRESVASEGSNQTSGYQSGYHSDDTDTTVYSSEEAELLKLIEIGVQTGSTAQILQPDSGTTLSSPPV
In short: as §1

EPHA7 = target: T33, EPHA7 (Homo sapiens, UniProt Q15375)
T33 construct: purchased Ambit (KinomeScan screening service)
In short: as §1

CSNK1A1L = target: T34, CSNK1A1L (Homo sapiens, UniProt Q8N752)
T34 construct: purchased Ambit (KinomeScan screening service)
T34 sequence (Q8N752 whole entry): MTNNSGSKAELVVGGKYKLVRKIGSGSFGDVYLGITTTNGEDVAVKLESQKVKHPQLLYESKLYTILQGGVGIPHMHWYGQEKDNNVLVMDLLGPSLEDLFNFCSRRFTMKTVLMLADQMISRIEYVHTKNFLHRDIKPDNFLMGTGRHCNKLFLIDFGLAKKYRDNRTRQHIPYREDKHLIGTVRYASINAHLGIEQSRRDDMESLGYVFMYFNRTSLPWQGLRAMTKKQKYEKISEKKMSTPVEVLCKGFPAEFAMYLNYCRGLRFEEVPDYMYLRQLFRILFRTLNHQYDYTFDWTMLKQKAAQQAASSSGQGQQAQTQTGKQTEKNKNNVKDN
In short: as §1

PDPK1 = target: T35, PDPK1 (Homo sapiens, UniProt O15530)
T35 construct: unspecified tag ('tagged kinases'); purchased Ambit (KinomeScan screening)
In short: as §1

CDK11 = target: T36, CDK11 (Homo sapiens, UniProt Q9BWU1)
T36 construct: purchased Ambit (KinomeScan screening)
In short: as §1

## Cc1ccccc1-n1c(C(C)Nc2nc(N)nc3nc[nH]c23)nc2cccc(C)c2c1=O (stereo not drawn) [CAL-130]
CAMKK1
  Percent of Control Binding: 100%
TRKB
  Percent of Control Binding: 100%
FLT3(D835Y)
  Percent of Control Binding: 100%
OSR1
  Percent of Control Binding: 100%
TTK
  Percent of Control Binding: 11%
HPK1
  Percent of Control Binding: 100%
ABL1(M351T)
  Percent of Control Binding: 100%
GCN2(S808G)
  Percent of Control Binding: 100%
TYK2(JH1domain)
  Percent of Control Binding: 100%
EGFR(G719C)
  Percent of Control Binding: 100%
HUNK
  Percent of Control Binding: 100%
ACVR2A
  Percent of Control Binding: 100%
AURKC
  Percent of Control Binding: 100%
LATS2
  Percent of Control Binding: 100%
CAMK1G
  Percent of Control Binding: 100%
KIT(V559D)
  Percent of Control Binding: 100%
FES
  Percent of Control Binding: 100%
CDK7
  Percent of Control Binding: 100%
CDK8
  Percent of Control Binding: 100%
CSNK1D
  Percent of Control Binding: 100%
EPHB3
  Percent of Control Binding: 100%
AKT1
  Percent of Control Binding: 100%
SRPK1
  Percent of Control Binding: 100%
LIMK1
  Percent of Control Binding: 100%
PRKCE
  Percent of Control Binding: 100%
TAO1
  Percent of Control Binding: 100%
AAK1
  Percent of Control Binding: 100%
NEK2
  Percent of Control Binding: 100%
GSK3B
  Percent of Control Binding: 100%
TXK
  Percent of Control Binding: 100%
FGR
  Percent of Control Binding: 100%
VEGFR2
  Percent of Control Binding: 100%
EPHA7
  Percent of Control Binding: 100%
CSNK1A1L
  Percent of Control Binding: 100%
PDPK1
  Percent of Control Binding: 100%
CDK11
  Percent of Control Binding: 100%
